# Experimental data from patent US12030868B2, “Prodrugs of CGRP antagonists” (Pfizer Ireland Pharmaceuticals, priority 2018, dated 2024).
# Where a name gives a salt, the structure may show the parent alone.
# Columns and labels:
# [1] = tested on: Caco-2 cells; assay: Caco-2 permeability assay; type: in vitro ADME, human; conditions: Caco-2 monolayer, donor 10 μM, 90 minutes, 37° C., pH 7.4; for Papp A-B: apical to basolateral; for Papp B-A: basolateral to apical
# Procedure: (§1) Caco-2 Permeability Assay
# (§2) The Caco-2 cells are cultured to confluency, trypsinized and seeded onto a filter transwell insert at a density of ^˜32,000 cells/well in DMEM cell culture medium. Cells are grown in a humidified atmosphere of 5% CO2 at 37° C. Following an overnight attachment period (24 h after seeding), the cell medium is replaced with fresh medium in both the apical and basolateral compartments every other day. The cell monolayers are used for transport studies 21 days post seeding after measuring the TEER values ([…]). The apical sides and basolateral sides are washed consecutively with HBSS 2.5% (v/v), HEPES (pH 7.4) or HBSS 2.5% (v/v), HEPES 10% (v/v), and Fetal Bovine Serum (pH 7.4) at 37° C. in an incubator under an atmosphere of 5% CO2.
# (§3) Donor working solution is prepared by dilution of DMSO stock of test article or positive control with transport media to 10 μM.
# (§4) For A→B directional transport, the donor working solution (with test article or positive control, with or without Pgp inhibitor) is added to the apical (A) compartment and the transport media as receiver working solution is added to the basolateral (B) compartment. For B→A directional transport, the donor working solution (with positive control or test article, with or without Pgp inhibitor) is added to the basolateral (B) compartment and transport media as receiver working solution is added to the apical (A) compartment.
# (§5) The cells are incubated in a humidified atmosphere of 5% CO2 at 37° C. for 90 minutes.
# (§6) At the end of the incubation, samples are taken from both donor and receiver compartments and transferred into 96-well assay plates containing internal standard solution (IS) in each well. After centrifugation, the supernatant solutions are transferred to clean 96 well plates and analyzed by LC-MS/MS. The MS detection is performed using a Sciex API 4000 instrument. Each compound is analyzed by reversed phase HPLC.
# (§7) The parameters Papp (apparent permeability) and efflux ratio are calculated as follows: Papp=(dQ/dt)×(1/C0)×(1/A) Efflux ratio=Papp[B→A]/Papp[A→B] • where dQ/dt is the permeability rate, C0 is the initial concentration in the donor compartment, and A is the surface area of the cell monolayer (0.33 cm^2). The Papp value is a rate measured in cm/s.
# (§8) Comparing the efflux ratios generated in the presence and absence of a Pgp inhibitor identifies whether the test article is a Pgp substrate.
# (§9) Recovery is calculated as follows: % Recovery=(Total compound mass in donor and receiver compartments at the end of the incubation/Initial compound mass in the donor compartment)×100.
# [2] = Caco-2 permeability assay; type: in vitro ADME, human; conditions: human, Caco-2 monolayer, donor 10 μM, 37° C., pH 7.4; for Papp A→B at 90 min, 10 μM: apical to basolateral; for Papp B→A at 90 min, 10 μM: basolateral to apical
# Procedure: as §1, §2, §3, §4, §5, §6, §7, §8, §9
"Papp A→B at 90 min, 10 μM [2]","Papp B→A at 90 min, 10 μM [2]",Compound,Papp A-B [1],Papp B-A [1]
–,–,"(R)-(3-(1-(3-(7-methyl-2-(octanoyloxymethyl)-2H-indazol-5-yl)-1-(4-(1-methylpiperidin-4-yl)piperazin-1-yl)-1-oxopropan-2-ylcarbamoyl)piperidin-4-yl)-2-oxoquinolin-1(2H)-yl)methyl octanoate compound with (R)-heptyl 7-methyl-5-(3-(4-(1-methylpiperidin-4-yl)piperazin-1-yl)-2-(4-(1-(octanoyloxymethyl)-2-oxo-1,2-dihydroquinolin-3-yl)piperidine-1-carboxamido)-3-oxopropyl)-1H-indazole-1-carboxylate (1:1) [Example 59]",2.2 ×10⁻⁶ cm/s,7.6 ×10⁻⁶ cm/s
5.1 ×10⁻⁶ cm/s,2.9 ×10⁻⁶ cm/s,"Cc1cc(C[C@@H](NC(=O)N2CCC(c3cc4ccccc4n(COC(=O)C(C)(C)C)c3=O)CC2)C(=O)N2CCN(C3CCN(C)CC3)CC2)cc2cn(COC(=O)C(C)(C)C)nc12 [Example 4, {5-[(2R)-2-{[4-(1-{[(2,2-dimethylpropanoyl)oxy]methyl}-2-oxo-1,2-dihydroquinolin-3-yl)piperidine-1-carbonyl]amino}-3-[4-(1-methylpiperidin-4-yl)piperazin-1-yl]-3-oxopropyl]-7-methyl-2H-indazol-2-yl}methyl 2,2-dimethylpropanoate trifluoroacetate]",–,–
< 0.05 ×10⁻⁶ cm/s,–,"Cc1cc(C[C@@H](NC(=O)N2CCC(c3cc4ccccc4[nH]c3=O)CC2)C(=O)N2CCN(C3CCN(C)CC3)CC2)cc2cn[nH]c12 [BHV-3500, N-[(2R)-3-(7-methyl-1H-indazol-5-yl)-1-[4-(1-methylpiperidin-4-yl)piperazin-1-yl]-1-oxopropan-2-yl]-4-(2-oxo-1,2-dihydroquinolin-3-yl)piperidine-1-carboxamide, reference compound]",–,–
0.31 ×10⁻⁶ cm/s,28.9 ×10⁻⁶ cm/s,"Cc1cc2cc3cn(nc13)COC(=O)C(C)(C)C/C=C\CC(C)(C)C(=O)OCn1c(=O)c(cc3ccccc31)C1CCN(CC1)C(=O)N[C@@H](C(=O)N1CCN(C3CCN(C)CC3)CC1)C2 [Example 10, (16Z,31R)-14,14,19,19,27-pentamethyl-31-[4-(1-methylpiperidin-4-yl)piperazine-1-carbonyl]-12,21-dioxa-10,23,32,34,40-pentaazahexacyclo[32.2.2.1^2,10.1^23,26.1^25,29.0^4,9]hentetraconta-2,4(9),5,7,16,24,26(40),27,29(39)-nonaene-13,20,33,41-tetrone]",–,–
1.13 ×10⁻⁶ cm/s,10.7 ×10⁻⁶ cm/s,"CCCCCCN(C)C(=O)OCn1cc2cc(C[C@@H](NC(=O)N3CCC(c4cc5ccccc5n(COC(=O)N(C)CCCCCC)c4=O)CC3)C(=O)N3CCN(C4CCN(C)CC4)CC3)cc(C)c2n1 [Example 93, {5-[(2R)-2-({4-[1-({[hexyl(methyl)carbamoyl]oxy}methyl)-2-oxo-1,2-dihydroquinolin-3-yl]piperidine-1-carbonyl}amino)-3-[4-(1-methylpiperidin-4-yl)piperazin-1-yl]-3-oxopropyl]-7-methyl-2H-indazol-2-yl}methyl N-hexyl-N-methylcarbamate]",–,–
–,–,"(R)-(7-methyl-5-(3-(4-(1-methylpiperidin-4-yl)piperazin-1-yl)-3-oxo-2-(4-(2-oxo-1,2-dihydroquinolin-3-yl)piperidine-1-carboxamido)propyl)-1H-indazol-1-yl)methyl heptanoate compound with (R)-(7-methyl-5-(3-(4-(1-methylpiperidin-4-yl)piperazin-1-yl)-3-oxo-2-(4-(2-oxo-1,2-dihydroquinolin-3-yl)piperidine-1-carboxamido)propyl)-2H-indazol-2-yl)methyl heptanoate (1:1) [Example 61]",2.5 ×10⁻⁶ cm/s,1.96 ×10⁻⁶ cm/s
0.839 ×10⁻⁶ cm/s,20 ×10⁻⁶ cm/s,"Cc1cc2cc3cn(nc13)COC(=O)C1(C/C=C\CC3(CC3)C(=O)OCn3c(=O)c(cc4ccccc43)C3CCN(CC3)C(=O)N[C@@H](C(=O)N3CCN(C4CCN(C)CC4)CC3)C2)CC1 [Example 13, (16′Z,31′S)-27′-methyl-31′-[4-(1-methylpiperidin-4-yl)piperazine-1-carbonyl]dispiro[cyclopropane-1,14′-[12,21]dioxa-[10,23,32,34,40]pentaazahexacyclo[32.2.2.1^2,10.1^23,26.1^25,29.0^4,9]hentetracontane-19′,1″-cyclopropane]-2′,4′(9′),5′,7′,16′,24′,26′(40′),27′,29′(39′)-nonaene-13′,20′,33′,41′-tetrone trifluoroacetate]",–,–
2.2 ×10⁻⁶ cm/s,13.9 ×10⁻⁶ cm/s,"Cc1cc2cc3cn(nc13)COC(=O)C(C)(C)CCCCC(C)(C)C(=O)OCn1c(=O)c(cc3ccccc31)C1CCN(CC1)C(=O)N[C@@H](C(=O)N1CCN(C3CCN(C)CC3)CC1)C2 [Example 125, (31R)-14,14,19,19,27-pentamethyl-31-[4-(1-methylpiperidin-4-yl)piperazine-1-carbonyl]-12,21-dioxa-10,23,32,34,40-pentaazahexacyclo[32.2.2.1^2,10.1^23,26.1^25,29.0^4,9]hentetraconta-2,4,6,8,24,26(40),27,29(39)-octaene-13,20,33,41-tetrone]",–,–
